Our source for the EC50 values is paper PMC4959957 (British Journal of Pharmacology, 2016).

SMILES strings stand for the structures.

In this experiment the target is T1, Asu-ACR-16 (Ascaris suum, UniProt A0A0K0QSL7).
T1 sequence (A0A0K0QSL7 24-504): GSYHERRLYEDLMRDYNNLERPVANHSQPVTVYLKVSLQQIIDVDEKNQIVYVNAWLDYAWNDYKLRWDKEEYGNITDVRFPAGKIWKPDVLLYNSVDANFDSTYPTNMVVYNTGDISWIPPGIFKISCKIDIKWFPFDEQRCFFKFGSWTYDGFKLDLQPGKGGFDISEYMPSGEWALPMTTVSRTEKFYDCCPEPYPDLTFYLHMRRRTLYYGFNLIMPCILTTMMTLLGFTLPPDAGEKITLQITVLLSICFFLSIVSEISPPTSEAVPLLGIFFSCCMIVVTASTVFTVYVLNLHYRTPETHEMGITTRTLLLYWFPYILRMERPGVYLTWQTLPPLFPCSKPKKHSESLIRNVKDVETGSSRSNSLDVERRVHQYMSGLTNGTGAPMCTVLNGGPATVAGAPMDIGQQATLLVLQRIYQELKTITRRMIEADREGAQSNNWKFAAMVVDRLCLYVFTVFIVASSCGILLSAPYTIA
In words: two-electrode voltage clamp, agonist concentration-response in Xenopus oocytes. In kind it is cell-based. A general note: Two-electrode voltage clamp holds a large cell at a set potential and records current.

By EC50 is commonly meant the concentration giving half of the maximal effect. Read a high EC50 as weaker potency. With `CC(=O)OCC[N+](C)(C)C` [ACh], the midpoint of the response, the EC50, lay at 5.9 ± 0.1 µM.

`CN1CCC[C@H]1c1cccnc1` [nic, nicotine]: the EC50 was 4.5 ± 0.2 µM.
